The numbers were not newly measured in patent US20050090549A1, “Intrathecal gabapentin for treatment of pain” (Medtronic, Inc., priority 2003, published 2005), which cites them from elsewhere.

SMILES strings stand for the structures.

The conditions of the data set: in water and in both basic and acidic aqueous solutions.

Take `NCC1(CC(=O)O)CCCCC1` [1-(aminomethyl)cyclohexane acetic acid]: the solubility entry is “freely soluble”.
